Results reported in patent publication US20200368315A1, “ANTIMICROBIAL PEPTIDES AND ADMIXTURES THEREOF SHOWING ANTIMICROBIAL ACTIVITY AGAINST GRAM-NEGATIVE PATHOGENS” (priority 2017, published 2020).
Converted amounts (≈) assume the structure as drawn. “And” between values parts separate entries of the source, which are not always exact repeats. Equal entries are not always repeated. Where two headings read alike, the source gives them in different places.

What was measured:
E. coli LMG15862 [1] = assay: microbe, parasite or virus in culture; assay type: cell-based, Escherichia coli; conditions: for MIC: Escherichia coli
Summary of the method: (§1)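 MIC = lowest concentration with no visible growth. Duplicate microdilution in MHB, 1/2 serial dilutions, 5*10^5 CFU/mL final inoculum; inoculum checked by plating a diluted growth-control well.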

K. pneumoniae LMG20218 [2] = assay: microbe, parasite or virus in culture; assay type: cell-based, Klebsiella pneumoniae; conditions: for MIC: Klebsiella pneumoniae
Summary of the method: as §1

P. aeruginosa LMG 6395 [3] = assay: microbe, parasite or virus in culture; assay type: cell-based, Pseudomonas aeruginosa; conditions: for MIC: Pseudomonas aeruginosa
Summary of the method: as §1

A. baumannii LMG01041 [4] = assay: microbe, parasite or virus in culture; assay type: cell-based, Acinetobacter baumannii; conditions: for MIC: Acinetobacter baumannii
Summary of the method: as §1

E. aerogenes LMG 02094 [5] = assay: microbe, parasite or virus in culture; assay type: cell-based, Enterobacter aerogenes; conditions: for MIC: Klebsiella aerogenes
Summary of the method: as §1

A. baumannii LMG01041 [6] = tested on: A. baumannii LMG01041
Summary of the method: (§2)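 Chequerboard broth microdilution in MHB of two agents in combination, final volume 100 uL, with growth and sterility controls. MICs alone and in combination give FICI = MICac/MICa + MICbc/MICb; synergy FICI≤0.5, additive 0.5–1, indifferent 1–2, antagonism >2.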

E. aerogenes LMG 02094 [7] = tested on: E. aerogenes LMG 02094
Summary of the method: as §2

E. coli LMG15862 [8] = tested on: E. coli LMG15862
Summary of the method: as §2

K. pneumoniae LMG20218 [9] = tested on: K. pneumoniae LMG20218
Summary of the method: as §2

P. aeruginosa LMG 6395 [10] = tested on: P. aeruginosa LMG 6395
Summary of the method: as §2

HEK293 cells = assay: Cell viability (ATP levels, CellTiter-Glo); conditions: HEK293 cells
Protocol: ATP levels were measured by adding 50 μL of CellTiter-Glo reagent to each well and after 5 minutes of incubation luminescence was measured with SpectraMax i3.
96-well plates were seeded with HEK293 cells at concentration of 30,000 cells per well in 100 μL of DMEM growth media supplemented with 1% NEAA and 10% FBS. Border wells were filled with 100 μL of sterile PBS. The next day compounds were added to cells. Compounds were first 2× diluted in 96-well V-bottom plate in PBS. After that compounds were mixed with media in 96-deep-well plate for final concentrations. Growth media from 3 plates was aspirated and replaced with 100 μL of prepared compounds. Compounds were tested in duplicate. ATP levels were measured by adding 50 μL of CellTiter-Glo reagent to each well and after 5 minutes of incubation luminescence was measured with SpectraMax i3. […] The potential effects were then calculated and presented as IC50 values (μg/mL).

[11] = tested on: human red blood cells (HRBc); assay: Hemolytic test
Protocol: Fresh human red blood cells (HRBc) were used for the hemolytic tests. After incubation with different concentrations of test compounds at 37° C. for 1 hour, the absorbance of the supernatant were measured.

Gram-negative pathogens = assay type: cell-based; conditions: alone; over the 5 Gram-negative pathogens
Protocol: Escherichia coli, Klebsiella pneumoniae, Pseudomonas aeruginosa, Acinetobacter baumannii, Enterobacter aerogenes were grown in Luria-Bertani (LB) broth shaken (200 rpm) or on LB agar at 37° C. […] MICs tests were performed in duplicate by a liquid growth inhibition microdilution assays in sterilized polypropylene microtiter plates according to Wiegand and […] [27]. […] The suspension was diluted in a ratio of 1:100 using Mueller Hinton Broth (MHB) and the final inoculum is 5*10^5 CFU/mL. […] The antimicrobials were diluted serially by 1/2 one by one and 50 uL diluted bacterial suspension were added to each well to make the final volume to be 100 uL. Growth control was accomplished by remove 10 uL from well 11 and dilute 1000 times to plate 1/10 suspension on the solid medium. […] The number of colonies on the control agar plate should be around 50 to ensure the concentration of the inoculum and the effectiveness of the experiment. The lowest concentration of the antimicrobials that inhibits visible growth of the indicator is identified as MIC.

Structure (SMILES): CC[C@@H](C)[C@@H](NC(=O)[C@@H](CCCNC(=N)N)NC(=O)[C@@H](CCCNC(=N)N)NC(=O)[C@@H](Cc1ccccc1)NC(=O)[C@@H](CC(C)C)NC(=O)[C@@H](CCCNC(=N)N)NC(=O)[C@H](N)CCCNC(=N)N)C(=O)N[C@H](CC(C)C)C(=O)N[C@H](CCCNC(=N)N)C(=O)N[C@H](Cc1c[nH]c2ccccc12)C(=O)N[C@H](CC(C)C)C(N)=O [GNP-D6]
- MIC value (E. coli LMG15862 [1]; alone, E. coli LMG15862): 2 µM (≈ 3.17 µg/mL)
- MIC value (K. pneumoniae LMG20218 [2]; alone, K. pneumoniae LMG20218): 2 µM (≈ 3.17 µg/mL)
- MIC value (P. aeruginosa LMG 6395 [3]; alone, P. aeruginosa LMG 6395): 2 µM (≈ 3.17 µg/mL)
- MIC value (A. baumannii LMG01041 [4]; alone, A. baumannii LMG01041): 2 µM (≈ 3.17 µg/mL)
- MIC value (E. aerogenes LMG 02094 [5]; alone, E. aerogenes LMG 02094): 2 µM (≈ 3.17 µg/mL)
- FICI (A. baumannii LMG01041 [6]; vancomycin + GNP): 0.5 and 0.625
- FICI (E. aerogenes LMG 02094 [7]; vancomycin + GNP): 0.667
- FICI (E. coli LMG15862 [8]; vancomycin + GNP): 0.75 and 0.5
- FICI (K. pneumoniae LMG20218 [9]; vancomycin + GNP): 0.75 and 0.5
- FICI (P. aeruginosa LMG 6395 [10]; vancomycin + GNP): 0.75
- IC50 (HEK293 cells; read-out: IC50 (cell viability, ATP levels)): 32.9 µM
- HC50 ([11]; HRBc, 37° C., 1 hour): 168.9 µM
- HC50 relative to the working concentration ([11]; working concentration 2 μM): 80 fold
- MIC / concentration needed to inhibit growth (Gram-negative pathogens): 2 µM (≈ 3.17 µg/mL)

Structure (SMILES): CN[C@H](CC(C)C)C(=O)N[C@H]1C(=O)N[C@@H](CC(N)=O)C(=O)N[C@H]2C(=O)N[C@H]3C(=O)N[C@H](C(=O)N[C@H](C(=O)O)c4cc(O)cc(O)c4-c4cc3ccc4O)[C@H](O)c3ccc(c(Cl)c3)Oc3cc2cc(c3O[C@@H]2O[C@H](CO)[C@@H](O)[C@H](O)[C@H]2O[C@H]2C[C@](C)(N)[C@H](O)[C@H](C)O2)Oc2ccc(cc2Cl)[C@H]1O [Vancomycin, reference compound]
- MIC (E. coli LMG15862 [1]; LMG15862, read-out: MIC value): 64 µM (≈ 92.8 µg/mL)
- MIC (E. coli LMG15862 [1]; LMG15862, read-out: MIC value of antimicrobial compounds alone): 64 µM (≈ 92.8 µg/mL)
- MIC (K. pneumoniae LMG20218 [2]; LMG20218, read-out: MIC value): 128 µM (≈ 186 µg/mL)
- MIC (K. pneumoniae LMG20218 [2]; LMG20218, read-out: MIC value of antimicrobial compounds alone): 128 µM (≈ 186 µg/mL)
- MIC (P. aeruginosa LMG 6395 [3]; LMG6395, read-out: MIC value): 128 µM (≈ 186 µg/mL)
- MIC (P. aeruginosa LMG 6395 [3]; LMG6395, read-out: MIC value of antimicrobial compounds alone): 128 µM (≈ 186 µg/mL)
- MIC (A. baumannii LMG01041 [4]; LMG01041, read-out: MIC value): 32 µM (≈ 46.4 µg/mL)
- MIC (A. baumannii LMG01041 [4]; LMG01041, read-out: MIC value of antimicrobial compounds alone): 32 µM (≈ 46.4 µg/mL)
- MIC (E. aerogenes LMG 02094 [5]; LMG02094, read-out: MIC value): 192 µM (≈ 278 µg/mL)
- MIC (E. aerogenes LMG 02094 [5]; LMG02094, read-out: MIC value of antimicrobial compounds alone): 192 µM (≈ 278 µg/mL)
- MICa (A. baumannii LMG01041 [6]; MIC of vancomycin alone): 32 µM
- MICa (E. aerogenes LMG 02094 [7]; MIC of vancomycin alone): 192 µM
- MICa (E. coli LMG15862 [8]; MIC of vancomycin alone): 64 µM
- MICa (K. pneumoniae LMG20218 [9]; MIC of vancomycin alone): 128 µM
- MICa (P. aeruginosa LMG 6395 [10]; MIC of vancomycin alone): 128 µM
- Effect on ATP levels (HEK293 cells; at concentrations tested): do not affect the ATP levels
- Hemolysis in the HRBc ([11]; even at 500 μM): did not induce hemolysis
- HC50 (hemolytic activity) ([11]; human red blood cells, 37° C., 1 hour): >500 µM
- MIC / concentration needed to inhibit growth (Gram-negative pathogens): at least 32 μM
